Source: patent US11116217B2, “Synergistic biocidal compositions containing 5-chloro-2-methylisothiazolin-3-one” (Thor GmbH, priority 2016, dated 2021)
Marks after values point to notes of the source that are not given here.

Tested on: Pseudomonas putida (DSM 25068)
Test: Minimum inhibitory concentration and synergy index (Kull) of CMIT combinations in Müller-Hinton broth microtiter plates
Format: cell-based
Conditions: 48 hours at 30° C.; for synergy index: SI=Qa/QA+Qb/QB
From the text: The synergism of a combination of 5-chloro-2-methylisothiazolin-3-one, containing 0.003 wt. %, in relation to the total proportion of 5-chloro-2-methyl-4-isothiazolin-3-one, of 2-methylisothiazolin-3-one, each time with a biocide/substance selected from the group of 1,2-benzisothiazolin-3-one (BIT), 2-bromo-2-nitropropane-1,3-diol (Bronopol), and zinc, was investigated for a synergistic interaction.
The test organisms used were the Gram-negative bacterium Pseudomonas putida (DSM 25068). For this, mixtures with different concentrations of the respective active substances were prepared and tested in regard to their effect on Pseudomonas putida. The testing was done in Müller-Hinton broth MHB (pH 7.0) with a cell density of 10^6 germs per ml.
The incubation time of the microtiter plates was 48 hours at 30° C. After 48 hours, the batches were evaluated for turbidity due to growth and, in addition, the optical density was determined by photometry. In this way, the minimum inhibitory concentrations (MHK) were determined for the two active substances individually and in combination.
The resulting synergism was represented numerically by calculating the synergy index (SI). The calculation was done by the customary method of F. C. Kull et al., Applied Microbiology, Vol. 9 (1961), p. 538. Loc. cit., the SI is calculated by the following formula: synergy index SI=Qa/QA+Qb/QB Qa=concentration of component A in the mixture A+B QA=concentration of component A as solitary biocide Qb=concentration of component B in the mixture A+B QB=concentration of component B as solitary biocide
If the synergy index has a value over 1, this means that an antagonism is present. If the synergy index takes on the value 1, this means that an addition of the effect of the two biocides/compounds is present. If the synergy index takes on a value below 1, this means that a synergism exists for the two biocides.

[1] = CMIT and BIT, below 1 = synergism
[2] = single agent, MHB pH 7.0, 10^6 germs per ml
[3] = CMIT and Bronopol, below 1 = synergism
[4] = CMIT and zinc (ZnCl2), QB assumed 240 ppm

Row | MIC (Pseudomonas putida, DSM25068, single agent, MHB pH 7.0, 10^6 germs per ml, read-out: concentration as solitary agent indicating an end point (minimum inhibitory concentration, QA/QB)) [µg/mL] | Compound | synergy index [1] | concentration as solitary agent indicating an end point (minimum inhibitory concentration, QA/QB) [2] | synergy index [3] | synergy index [4]
1 | – | O=c1[nH]sc2ccccc12 [BIT, 1,2-benzisothiazolin-3-one] | 1.00 | 100 ppm | – | –
2 | 15 | O=[N+]([O-])C(Br)(CO)CO [Bronopol, 2-bromo-2-nitropropane-1,3-diol] | – | – | 1.00 | –
3 | – | Cn1sc(Cl)cc1=O [CMIT, 5-chloro-2-methylisothiazolin-3-one] | 1.00 | 1.5 ppm | 1.00 | 1.00
4 | – | [Cl-].[Cl-].[Zn+2] [Zn, zinc chloride] | – | > 240* ppm | – | 1.00
